# Reference: patent publication US20230348369A1 (Cytokinetics, Inc., priority 2020, published 2023)
# Where two headings read alike, the source gives them in different places.
# Target: human NAMPT (Homo sapiens, UniProt P43490)
# Test: Human recombinant enzyme assay (NMN fluorescence biochemical assay, activation of NAMPT)
# How it was run: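 NMN production is detected fluorometrically (Ex 355/Em 460 nm) 40 min after acetophenone, KOH and formic acid derivatization. Reactions ran 60 min at ambient temperature: 6 nM human NAMPT, nicotinamide 150 μM, PRPP 20 μM, ATP 2.5 mM, buffered at pH 7.2 with 50 mM HEPES plus DTT, CHAPS, NaCl and 100 mM MgCl2.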
# [1] = Table A, human recombinant NAMPT, NMN formation, 60 min
# [2] = Table A, human recombinant NAMPT, NMN formation, 60 min, read-out: EC50 Human
# human NAMPT, sequence (P43490 whole entry): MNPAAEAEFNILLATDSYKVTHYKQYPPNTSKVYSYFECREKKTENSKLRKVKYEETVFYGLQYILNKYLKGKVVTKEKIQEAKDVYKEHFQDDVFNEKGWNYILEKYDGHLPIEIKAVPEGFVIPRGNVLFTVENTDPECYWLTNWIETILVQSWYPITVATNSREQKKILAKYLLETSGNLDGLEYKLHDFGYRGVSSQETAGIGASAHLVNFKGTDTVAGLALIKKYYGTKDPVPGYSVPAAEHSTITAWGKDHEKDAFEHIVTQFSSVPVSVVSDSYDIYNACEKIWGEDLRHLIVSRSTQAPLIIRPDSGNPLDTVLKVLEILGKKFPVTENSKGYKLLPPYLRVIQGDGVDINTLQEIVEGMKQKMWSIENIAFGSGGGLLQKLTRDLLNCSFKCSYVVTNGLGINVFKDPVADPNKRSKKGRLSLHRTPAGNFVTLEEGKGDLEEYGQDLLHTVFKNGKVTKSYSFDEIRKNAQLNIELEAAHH
AC1.4 Human [1] [µM],EC50 [2] [µM],SMILES,EC50 [µM]
1.4,33.1,"COc1ccc(CNC(=O)NC2CC3(CC(CN4CCCc5c(F)cc(F)cc54)C3)C2)cc1 (stereo not drawn) [Compound 127, 1-(6-((5,7-difluoro-3,4-dihydroquinolin-1(2H)-yl)methyl)spiro[3.3]heptan-2-yl)-3-(4-methoxybenzyl)urea]",–
6.6,46.8,"COc1ccc(CNC(=O)NC2CC3(C2)CC(C(=O)NCc2cccnc2)C3)cc1 (stereo not drawn) [Compound 49, 6-(3-(4-methoxybenzyl)ureido)-N-(pyridin-3-ylmethyl)spiro[3.3]heptane-2-carboxamide]",–
5.1,3.9,"COc1ccc(CNC(=O)NC2CC3(C2)CC(C(=O)NC2CCCc4ccc(F)cc42)C3)cc1 (stereo in doubt) [Compound 99, (R)-N-(7-fluoro-1,2,3,4-tetrahydronaphthalen-1-yl)-6-(3-(4-methoxybenzyl)ureido)spiro[3.3]heptane-2-carboxamide]",–
5.5,55.1,"COc1ccc(CNC(=O)NC2CC3(C2)CN(C(=O)c2cccc(C(C)(C)O)c2)C3)cc1 [Compound 175, 1-(2-(3-(2-hydroxypropan-2-yl)benzoyl)-2-azaspiro[3.3]heptan-6-yl)-3-(4-methoxybenzyl)urea]",–
1.7,6.1,"O=C(NCc1ccc(Cl)cc1)NC1CC2(C1)CC(OCc1cccnc1)C2 (stereo not drawn) [Compound 350, 1-(4-chlorobenzyl)-3-(6-(pyridin-3-ylmethoxy)spiro[3.3]heptan-2-yl)urea]",–
0.2,0.4,"O=C(NCCCCC1CCN(C(=O)c2ncco2)CC1)NCc1ccc(Cl)cc1 [Compound 305, 1-(4-chlorobenzyl)-3-(4-(1-(oxazole-2-carbonyl)piperidin-4-yl)butyl)urea]",–
3.3,37.8,"COc1ccc(CNC(=O)NC2CC3(C2)CC(C(=O)NCC(C)(C)c2cccnc2)C3)cc1 (stereo not drawn) [Compound 66, 6-(3-(4-methoxybenzyl)ureido)-N-(2-methyl-2-(pyridin-3-yl)propyl)spiro[3.3]heptane-2-carboxamide]",–
10.0,37.9,"O=C(NCc1ccc(Cl)cc1)NC1CC2(C1)CC(NC(=O)c1cccnc1)C2 (stereo not drawn) [Compound 184, N-(6-(3-(4-chlorobenzyl)ureido)spiro[3.3]heptan-2-yl)nicotinamide]",–
3.6,4.7,"CC(C)c1cccc(C(=O)N2CC3(CC(NC(=O)NCc4ccc(Cl)cc4)C3)C2)c1 [Compound 220, 1-(4-chlorobenzyl)-3-(2-(3-isopropylbenzoyl)-2-azaspiro[3.3]heptan-6-yl)urea]",–
2.0,29.5,"COc1ccc(CNC(=O)NC2CC3(C2)CN(C(=O)c2cccc(C(C)(C)C)c2)C3)cc1 [Compound 174, 1-(2-(3-(tert-butyl)benzoyl)-2-azaspiro[3.3]heptan-6-yl)-3-(4-methoxybenzyl)urea]",–
2.3,26.3,"COc1ccc(CNC(=O)NC2CC3(C2)CN(C(=O)C(C)(C)c2ccc(C)cc2)C3)cc1 [Compound 153, 1-(4-methoxybenzyl)-3-(2-(2-methyl-2-(p-tolyl)propanoyl)-2-azaspiro[3.3]heptan-6-yl)urea]",–
0.1,1.8,"COc1ccc(CNC(=O)NC2CC3(C2)CC(C(=O)N2CCCc4ccc(F)cc42)C3)cc1 (stereo not drawn) [Compound 106, 1-(6-(7-fluoro-1,2,3,4-tetrahydroquinoline-1-carbonyl)spiro[3.3]heptan-2-yl)-3-(4-methoxybenzyl)urea]",–
4.7,49.4,"COc1ccc(CNC(=O)NC2CC3(C2)CN(C(=O)c2ccccc2)C3)cc1 [Compound 141, 1-(2-benzoyl-2-azaspiro[3.3]heptan-6-yl)-3-(4-methoxybenzyl)urea]",–
1.3,23.8,"COc1ccc(CNC(=O)NC2CC3(C2)CN(C(=O)c2cccc(N4CCOCC4)c2)C3)cc1 [Compound 191, 1-(4-methoxybenzyl)-3-(2-(3-morpholinobenzoyl)-2-azaspiro[3.3]heptan-6-yl)urea]",–
4.9,20.9,"O=C(NCc1ccc(Cl)cc1)NC1CC2(C1)CN(S(=O)(=O)c1ccccc1Cl)C2 [Compound 216, 1-(4-chlorobenzyl)-3-(2-((2-chlorophenyl)sulfonyl)-2-azaspiro[3.3]heptan-6-yl)urea]",–
2.6,50,"COc1ccc(CNC(=O)NC2CC3(C2)CC(C(=O)NCC(C)(C)c2ccccn2)C3)cc1 (stereo not drawn) [Compound 65, 6-(3-(4-methoxybenzyl)ureido)-N-(2-methyl-2-(pyridin-2-yl)propyl)spiro[3.3]heptane-2-carboxamide]",–
0.5,1.8,"Cc1ccccc1N(C)C(=O)CCCCCNC(=O)NCc1ccc(Cl)cc1 [Compound 266, 6-(3-(4-chlorobenzyl)ureido)-N-methyl-N-(o-tolyl)hexanamide]",–
0.2,38.5,"NC(=O)c1ccc(CNC(=O)NC2CC3(C2)CN(C(=O)c2cncc(N4CCCC4)c2)C3)cc1 [Compound 223, 4-((3-(2-(5-(pyrrolidin-1-yl)nicotinoyl)-2-azaspiro[3.3]heptan-6-yl)ureido)methyl)benzamide]",–
1.9,39.2,"Cc1ccc(C(=O)N2CC3(CC(NC(=O)NCc4cocn4)C3)C2)cc1 [Compound 228, 1-(2-(4-methylbenzoyl)-2-azaspiro[3.3]heptan-6-yl)-3-(oxazol-4-ylmethyl)urea]",–
5.6,41.9,"COc1ccc(CNC(=O)NC2CC3(C2)CN(C(=O)Cc2ccccc2Cl)C3)cc1 [Compound 39, 1-(2-(2-(2-chlorophenyl)acetyl)-2-azaspiro[3.3]heptan-6-yl)-3-(4-methoxybenzyl)urea]",–
0.7,1.4,"Cc1ccccc1CC(=O)N1CCC(CCCCNC(=O)NCc2ccc(Cl)cc2)CC1 [Compound 313, 1-(4-chlorobenzyl)-3-(4-(1-(2-(o-tolyl)acetyl)piperidin-4-yl)butyl)urea]",–
3.4,47,"CC(C)(C)OC(=O)NC1CC2(CC(NC(=O)NCc3ccc(CO)cc3)C2)C1 (stereo not drawn) [Compound 9, tert-butyl (6-(3-(4-(hydroxymethyl)benzyl)ureido)spiro[3.3]heptan-2-yl)carbamate]",–
11.6,22,"O=C(NCc1ccc(Cl)cc1)NC1CC2(C1)CC(NC(=O)c1ccncc1)C2 (stereo not drawn) [Compound 185, N-(6-(3-(4-chlorobenzyl)ureido)spiro[3.3]heptan-2-yl)isonicotinamide]",–
18.9,60.2,"COc1ccc(CNC(=O)NC2CC3(C2)CC(NC(=O)c2ccccc2)C3)cc1 (stereo not drawn) [Compound 18, N-(6-(3-(4-methoxybenzyl)ureido)spiro[3.3]heptan-2-yl)benzamide]",–

SMILES,AC1.4 Human [1] [µM],EC50 [2] [µM],EC50 [µM]
"COc1ccc(CNC(=O)NC2CC3(C2)CC(c2nc(-c4ccccc4)co2)C3)cc1 (stereo not drawn) [Compound 326, 1-(4-methoxybenzyl)-3-(6-(4-phenyloxazol-2-yl)spiro[3.3]heptan-2-yl)urea]",4.5,–,–
"COC(=O)[C@H]1C[C@@]2(C[C@H](NC(=O)NCc3ccc(Cl)cc3)C2)C1 (single isomer, unassigned) [Compound 201, methyl 6-(3-(4-chlorobenzyl)ureido)spiro[3.3]heptane-2-carboxylate]",6.7,–,22.2
